Patent US7449315B2, “Bifunctional energy-reversible acyl-compositions” (Cryolife, Inc., priority 2002, dated 2008)

What was measured:
[1] = Solubility in aqueous solution after removal of t-BOC; format: physicochemical; conditions: neutralized to pH 7.0
Procedure: 3-[2-hydroxy-4-(ethyl)(2-tert-butyloxycarbamidoethyl)amino]phenyl-2-methylpropenoic acid, 4-aminoiminophenyl ester, HCl salt (15; 12 mg, 25 μmmol) was suspended in 1.2 ml of 3N HCl and mixed by inversion for 3 hours at ambient temperature to release the t-BOC group and generate 3-[2-hydroxy-4-(ethyl) aminoethyl)amino]phenyl-2-methylpropenoic acid, 4-aminoiminophenyl ester, HCl salt (16; N-CINN-AP). After 3 hours, the reaction was neutralized with 3N NaOH to give a final pH of 7.0.

Human thrombin = Human thrombin (Homo sapiens, UniProt P00734); experiment: Inhibition and light reactivation of thrombin by R-NH-CINN-AP inhibitors, S-2238 chromogenic assay; format: biochemical; conditions: for Inhibition after 16 Hrs Incubation (%): ambient temperature, dark; for Light Reactivation (%): after 10 seconds of blue light, activity light/activity control
Procedure: (§1) R is -tBOC, —H2^+, or mPEG5000. Human thrombin was modified with R—NH-CINN-AP inhibitors as follows: Thrombin (600 units; ˜3.5 nmol) in 50 mM sodium citrate buffer, 3 mM CaCl2, 7% kollidon, pH 7.0, was reacted with 3.5-35 nmol of the R—N-CINN-AP inhibitor for 12-18 hours at ambient temperature in the dark. Thrombin activities were measured under red light (“dark”) and after exposure to 10 seconds of blue light from a dental light and were assayed using S-2238 (diaPharma) at 30° C. Percentage inhibition was calculated as 100—dark activity. Dark activity was calculated as [activitydark÷activitycontrol]×100. Light reactivation was calculated as activitylight÷activtycontrol. The following are typical results.

Human tPA (Activase) = target: T1, Human tPA (Activase) (Homo sapiens, UniProt P00750); experiment: Inhibition and light reactivation of tPA by Rz-NH-CINN-AP inhibitors, S-2288 chromogenic assay; format: biochemical; conditions: for Inhibition after 16 hrs incubation (%): ambient temperature, dark; for Light Reactivation (%): after blue light
T1 construct: purchased Genentech Inc. Lot # E9034A
Procedure: as §1
R2 is -tBOC, —-H2^+, or mPEG5000. The procedures of Examnple 4 was repeated except that Human tPA (Activase, Genentech Inc. Lot # E9034A) was modified with Rz—NH-CINN-AP inhibitors in place of thrombin. The reactions were carried out as follows: tPA (0.83 nmol) in 10 mM tris-HCl, 130 mM NaCl, pH 7.4 was reacted with 0.8 3-8.3 nmoles of the R—NH CINN-AP inhibitors for 12-18 hours at ambient temperature in the dark. Activities were calculated as for Example 4, using S-2288 (diaPharna).

T1 sequence (P00750 36-562): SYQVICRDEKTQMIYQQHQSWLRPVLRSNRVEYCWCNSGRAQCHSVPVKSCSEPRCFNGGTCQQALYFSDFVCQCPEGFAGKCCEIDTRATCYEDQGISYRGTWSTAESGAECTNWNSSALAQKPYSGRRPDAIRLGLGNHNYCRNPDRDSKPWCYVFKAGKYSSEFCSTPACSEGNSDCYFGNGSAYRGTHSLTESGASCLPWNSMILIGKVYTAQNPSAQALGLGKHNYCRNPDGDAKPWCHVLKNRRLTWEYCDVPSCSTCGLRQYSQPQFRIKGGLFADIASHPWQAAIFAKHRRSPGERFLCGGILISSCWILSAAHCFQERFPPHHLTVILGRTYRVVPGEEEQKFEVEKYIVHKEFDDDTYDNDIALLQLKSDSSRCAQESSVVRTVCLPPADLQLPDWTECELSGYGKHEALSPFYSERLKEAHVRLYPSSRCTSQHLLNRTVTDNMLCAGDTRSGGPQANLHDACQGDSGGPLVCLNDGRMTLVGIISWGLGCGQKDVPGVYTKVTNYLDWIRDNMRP

Row | Compound | Solubility (in words) [1] | Inhibition after 16 Hrs Incubation (%) (Human thrombin; inhibitor excess 1×) | Inhibition after 16 Hrs Incubation (%) (Human thrombin; inhibitor excess 5×) | Light Reactivation (%) (Human thrombin; inhibitor excess 10×) | Inhibition after 16 Hrs Incubation (%) (Human thrombin; inhibitor excess 10×) | Thrombin inhibition (in words) (Human thrombin; summary of Table 1) | tPA inhibition (in words) (Human tPA (Activase); Table 2) | Inhibition after 16 hrs incubation (%) (Human tPA (Activase); inhibitor excess 5×) | Light Reactivation (%) (Human tPA (Activase); inhibitor excess 10×) | Inhibition after 16 hrs incubation (%) (Human tPA (Activase); inhibitor excess 10×)
1 | CCN(CCN)c1ccc(C=C(C)C(=O)Oc2ccc(C(=N)N)cc2)c(O)c1.Cl [#16] | soluble in aqueous solution | 21 | 70 | 64 | 96 | less effective inhibitor at lower molar ratios | less effective inhibitor at lower molar ratios | 78 | 78 | 88
2 | CCN(CCNC(=O)OC(C)(C)C)c1ccc(C=C(C)C(=O)Oc2ccc(C(=N)N)cc2)c(O)c1.Cl [#15, 3-[2-hydroxy-4-(ethyl)(2-tert-butyloxycarbamidoethyl)amino]-phenyl-2-methylpropenoic acid, 4-aminoiminophenyl ester, HCl salt] | – | 94 | 98 | 72 | 97 | – | – | 95 | 87 | 95
